pIC50: −log10 of the molar value. Read-outs that look alike come from different tables or passages of the source. Each block holds one compound with its values, some of them ahead of it.
Columns and labels:
bovine erythrocyte GPx = target: T1, bovine erythrocyte GPx (Bos taurus, UniProt P00435); experiment: GPx enzyme activity assay (TBHP/GSH, GR/NADPH coupled); type: biochemical; details: 23 °C; n>3; 0.25 mM GSH; read-out: Enzyme inhibition IC50 (CI 95 %)
T1 construct: 180 μL of a bovine erythrocyte GPx1 solution (0.125 U/mL); purchased Sigma Aldrich (Taufkirchen, Germany); host or cells: bovine erythrocytes
T1 sequence (P00435 1-205): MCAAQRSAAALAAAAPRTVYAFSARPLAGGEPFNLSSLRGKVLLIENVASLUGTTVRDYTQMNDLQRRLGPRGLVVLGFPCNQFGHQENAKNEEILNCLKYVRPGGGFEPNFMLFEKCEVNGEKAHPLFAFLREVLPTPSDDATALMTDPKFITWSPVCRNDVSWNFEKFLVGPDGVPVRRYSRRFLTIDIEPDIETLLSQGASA
Experimental: The ability of pentathiepins to inhibit the bovine erythrocyte GPx activity was assayed for by an established enzyme method, which is based on the GPx‐dependent reduction of tert‐butyl hydroperoxide (TBHP) by GSH, leading to the formation of GSSG, which is coupled to the reduction of GSSG back to GSH by glutathione reductase (GR) and the oxidation of NADPH to NADP^+[10] (Figure 1). Inhibition potencies of the compounds were ranked by their IC50 values; that is, concentration of the inhibitor at the inflection point in the sigmoidal log dose‐inhibition curve (Figure 4A), and are summarized for the pentathiepins and mercaptosuccinic acid (MSA) in Table 1.
GPx enzyme activity assay: To evaluate if the various compounds could inhibit GPx1, an enzymatic assay monitoring the activity of the bovine erythrocyte GPx was used as described previously.33 Bovine erythrocyte GPx is highly homologous to the human GPx1 (homology of 87 %)34 but much more affordable. In this assay, GPx reduces tert‐butylhydroperoxide (TBHP) followed by oxidation of glutathione (GSH) to the disulfide (GSSG), which in turn is regenerated to GSH by glutathione reductase (GR) with the consumption of NADPH. To each well of a UV‐transparent 96‐well plate were added 180 μL of a bovine erythrocyte GPx1 solution (0.125 U/mL) and 30 μL of prospective inhibitor in different concentrations diluted in DMF and incubated under shaking for 15 min at room temperature. Then 30 μL of stock solutions of GSH (2.5 mM) and baker's yeast GR plus NADPH (2 U/mL; 2.0 mM) were added. All stock solutions were prepared in potassium phosphate buffer (50 mM, pH 7.4, EDTA 1.1 mM, Triton‐X 0.01 %). The reaction was started by addition of TBHP solution (5 mM), giving final concentrations of 0.075 U/mL bovine erythrocyte GPx, 0.2 U/mL GR, 0.25 mM GSH, 0.2 mM NADPH and prospective inhibitor concentrations between 0.2–100 μM. The reaction was followed by the rate of decreasing absorption of the NADPH at λ=340 nm, measured every 15 s for ca. 20 min. The GPx activity related to untreated control was imported into the GraphPad Prism 6.0 software and the IC50 values were calculated by estimating the inflection point of the sigmoidal log concentration‐activity curves.

SISO cells [1] = experiment: Alkaline comet assay; type: cell-based, human; details: 15 min at 0 °C
Experimental: (§1) To assess the induction of DNA strand breaks by pentathiepin 4 the Comet Assay was used. The SISO and HAP‐1 cell lines were treated with either 1 % DMF (solvent control), 20 μM H2O2 (positive control) or 25 μM 4 for 15 min at 0 °C. The DNA in the comet head corresponds to still intact genomic DNA while the tail forms due to the damage of nuclear DNA (Figure 9B). […] For HAP‐1 cells a greater reduction of intact DNA from 86 % in control cells to 66 % in pentathiepin‐incubated cells was observed.
(§2) Alkaline comet assay to assess induction of DNA strand breaks: The method was adapted from Olive and Banath.40 The alkaline protocol allows for the detection of single and double strand breaks as well as alkali‐labile sites and is based on the different electrophoretic mobility of intact and damaged nuclear DNA. […] The induction of strand breaks creates free charged ends that drift out and form the characteristic comet tail. The percentage of DNA that is located in the comet head was selected as descriptor, which corresponds to the amount of still intact genomic DNA.
(§3) Briefly, SISO and HAP‐1 cells were harvested by trypsinization and a single cell suspension with 50 000 cells per mL PBS was prepared. Per condition 50 000 cells were incubated on ice (to impair DNA repair) with either the solvent control DMF (1.0 %), 20 μM H2O2 or 25 μM 4 for 15 min. Afterwards, 400 μL of the cell suspension were mixed with 1.2 mL 1 % low melting point agarose (Carl Roth, Germany) at 40 °C and evenly distributed on agarose‐precoated (GeneOn, Germany) glass slides (Thermo Fisher). After 3 min polymerization the slides were horizontally submerged in lysis buffer (1.2 M NaCl (Carl Roth, Germany), 0.1 % N‐Lauryl‐Sarcosinate (Merck), 0.1 M Na‐EDTA, 0.26 M NaOH) and placed at 4 °C overnight. Before electrophoresis at 0.6 V/cm for 25 min the slides were rinsed three times in rinse/electrophoresis buffer (0.002 M Na‐EDTA, 0.03 M NaOH). Afterwards, the slides were neutralized in distilled water and subsequently stained with 250 μL of a 10 μg/mL PI in water solution for 20 min. Finally, the slides were analyzed with a Leica DMi8 fluorescent microscope and LASX software (Leica, Germany) and comets were scored with CometScore 2.0 (Rex A. Hoover, www.rexhoover.com). At least 100 comets were scored per condition.

[2] = tested on: SISO human cervix cancer cell line; experiment: Crystal violet proliferation assay; type: cell-based; details: 37 °C, 96 h, n>4, read-out: Inhibition of cell viability GI50 (CI 95 %)
Experimental: GI50 values for 50 % growth inhibition were all in a low micro molar range (Table 1). […] The indole−pentathiepins gave lower GI50 values than the pyrrolo[1,2‐a]quinoxaline derivatives. […] There was also a trend showing that an electron rich substituent in position R^2 increased the antiproliferative effect in SISO cells.
Crystal violet proliferation assay: To measure cell growth inhibition, the crystal violet assay was carried out as previously described.37 Adherent cell lines were seeded out in a 96‐well plate (1000 cells per 200 μL culture medium) and allowed to attach for 24 h. Cells were exposed to nine serial dilutions of compound, added to the medium from 1000‐fold concentrated stock solutions in DMF. For the controls, cells were exposed to 0.1 % DMF alone. After addition of compounds, plates for the detection of the starting point of the proliferation at incubation time zero (t 0) were stopped with glutaraldehyde (see below), washed with Dulbecco's buffer (containing KCl 0.2 g/L, MgSO4 ⋅ 7 H2O 0.1 g/L, Na2HPO4 ⋅ >7 H2O 1.55 g/L, KH2HPO4 0.2 g/L and NaCl 8 g/L in water) and stored at 4 °C until the staining procedure. Treated cells were incubated for 96 h in the incubator, the medium was removed and replaced with 100 μL of 1 % glutaraldehyde in Dulbecco's buffer for 20 min. After washing twice with 150 μL of Dulbecco's buffer, the buffer was removed and replaced with 100 μL of a 0.02 % crystal violet solution dissolved in water for 30 min and subsequently washed in tap water for 15 min. Water was removed and replaced with 100 μL of ethanol (70 % in water) followed by shaking on a 96‐well shaker (MS3 digital, IKA‐Werke, Germany) for 2 h. Optical density was measured with a SpectraMax Plus 383 microtiter plate reader at λ=570 nm (Molecular Devices, USA). The optical density of t 0 plates at the time of treatment were subtracted from optical densities of plates with treated cells after 96 h (T), and the growth inhibition relative to untreated, control cells (C) as described.22 Growth inhibition concentrations at 50 % (GI50) were calculated by determining the inflection point of the sigmoidal log dose‐growth inhibition (%T/C) curves with the GraphPad Prism 6.0 software.

HAP-1 cells [3] = experiment: Alkaline comet assay; type: cell-based, human; details: 20 μM positive control, 15 min at 0 °C
Experimental: as §1, §2, §3

HAP-1 cells [4] = experiment: Fluorescence microscopy of mitochondrial membrane potential (JC-1); type: cell-based, human; details: positive control, 2.5 μg/L, 1 h
human GPx = experiment: GPx activity assay with human cancer cell lysates (SISO); type: biochemical; details: inhibitor at its IC50 for bovine GPx, 0.5 mM GSH
Experimental: To investigate whether the pentathiepins have an inhibitory effect on human GPx, cell lysates of the human cervix cancer cell line SISO, which expresses high levels of GPx1 (see below), were incubated with either 4 or MSA in concentrations of the IC50 value for the inhibitory effect on bovine GPx1.
To measure the inhibition of human GPx activity, the enzyme assay was adapted to use human cancer cell lysates in place of the bovine enzyme. A quantity of 100 μg cellular protein (determined according to the Bradford method) per well was used. Due to the large consumption of cell lysates, just the inhibitory effect on GPx at one concentration of pentathiepin was determined in primary screening. The concentration of GSH was raised to a concentration of 0.5 mM to increase the velocity of the reaction, all other conditions were unchanged. The rates of NADPH oxidation were normalized to the solvent control. […] We used 100 μg protein of lysates and added GSH up to final concentrations between 0.375–3 mM. The rates of the GPx activity were calculated by nonlinear regression and the fitted with the GraphPad Prism 6.0 software: “Enzyme kinetics – Substrate vs. Velocity (Michaelis‐Menten)”.

bovine GPx1 = target: T2, bovine GPx1 (Bos taurus, UniProt P00435); experiment: Jump-dilution experiments for reversibility of GPx1 inhibition; type: biochemical; details: 30 min pre-incubation at 23 °C, 100-fold jump-dilution
T2 construct: 180 μL of a bovine erythrocyte GPx1 solution (0.125 U/mL); purchased Sigma Aldrich (Taufkirchen, Germany); host or cells: bovine erythrocytes
T2 sequence (P00435 1-205): T1 sequence (P00435 1-205)
Experimental: No difference in the inhibitory activity of 4 after jump‐dilution (Figure 4B left, a) was observed compared to expected inhibition at 0.25 μM (Figure 4B left, 0.25 μM), evidence that GPx1 inhibition is reversible. […] This is consistent with findings that MSA can act as an irreversible inhibitor of GPx1.11 In further jump‐dilution experiments, we pre‐incubated both inhibitors with the assay concentrations of either GSH and TBHP (a, d) or GSH only (b, e), with (a–c) and without (d–f) GPx1 for 30 min.
The jump‐dilution experiments were carried out in a 96‐well plates at room temperature. To each well was added 75 μL of a 20 IU mL^−1 GPx stock‐solution followed by the addition of 3 μL of a 2.5 mM solution of 4 in DMF and 30 μL of a 2.5 mM solution of GSH in buffer or 30 μL of a 2.5 mM solution of GSH in buffer and 30 μL of a 5 mM solution of TBHP in water and 300 μL buffer. The plates were shaken for 30 min in the dark, then each well was diluted 100 fold into a second plate prepared for the GPx‐assay. The enzyme activity was immediately measured as described above.

SISO cells [5] = experiment: Fluorescence microscopy for lipid peroxidation (BODIPY 581/591); type: cell-based, human; details: 100 μM positive control, 24 h
Experimental: In another set of experiments, LPO was visualized by fluorescence microscopy with a dye for lipid peroxides, BODIPY 581/591. […] Together, our results point to apoptosis and not ferroptosis as the mechanism of cell death induced by 4.
Fluorescence microscopy for the detection of lipid peroxidation: SISO cells (250 000 cells) were seeded out in 6‐well plates with an inserted coverslip. Cells were allow to attach for 24 h and then exposed to 25 μM 4 or 100 μM tert‐butyl‐hydroperoxide as a positive control. After 24 h coverslips were washed with PBS and stained with 1 μM BODIPY 581/591 in culture medium for 30 min. Cells on the coverslips were then mounted and examined with a Leica DMi8 fluorescence microscope at λ ex/em=460–500/512–542 nm for the oxidized BODIPY 581/591 and λ ex/em=540–581/592–668 for the reduced form.

pIC50 (bovine erythrocyte GPx): 5.75
Structure (SMILES): CCOc1c2c(c3cnc4ccccc4n13)SSSSS2 [Compound 1]

pIC50 (bovine erythrocyte GPx): 6.28
Structure (SMILES): CCOc1c2c(c3cnc4cc(C)ccc4n13)SSSSS2 [Compound 2, 12‐Ethoxy‐3‐methyl‐[1,2,3,4,5]pentathiepino[6′,7′ : 3,4]pyrrolo[1,2‐a]quinoxaline]

pIC50 (bovine erythrocyte GPx): 6.33
Structure (SMILES): CCOc1c2c(c3c(C(F)(F)F)nc4cc(C)ccc4n13)SSSSS2 [Compound 3, 12‐Ethoxy‐3‐methyl‐6‐(trifluoromethyl)‐[1,2,3,4,5]pentathiepino[6′,7′ : 3,4]pyrrolo[1,2‐a]quinoxaline]

pIC50 (bovine erythrocyte GPx): 5.73
Structure (SMILES): CCOc1c2c(c3c(C(F)(F)F)nc4cc(C)c(C)cc4n13)SSSSS2 [Compound 5, 12‐Ethoxy‐2,3‐dimethyl‐6‐(trifluoromethyl)‐[1,2,3,4,5]pentathiepino[6′,7′ : 3,4]pyrrolo[1,2‐a]quinoxaline]
percentage of undamaged (intact) DNA in comet head (SISO cells [1]; 25 μM): 80%

GI50 ([2]; Homo sapiens): 3.5 µM
pIC50 (bovine erythrocyte GPx): 6.02
Structure (SMILES): Cn1c2c(c3ccccc31)SSSSS2 [Compound 6, 6‐Methyl‐6H‐[1,2,3,4,5]pentathiepino[6,7‐b]indole]

GI50 ([2]; Homo sapiens): 1.5 µM
pIC50 (bovine erythrocyte GPx): 6.40
Structure (SMILES): CCn1c2c(c3cc(Cl)ccc31)SSSSS2 [Compound 7, 9‐Chloro‐6‐ethyl‐6H‐[1,2,3,4,5]pentathiepino[6,7‐b]indole]

Second part, the compound before the results:

Structure (SMILES): c1ccc(Cn2c3c(c4ccccc42)SSSSS3)cc1 [Compound 8, 6‐Benzyl‐6H‐[1,2,3,4,5]pentathiepino[6,7‐b]indole]
GI50 ([2]; Homo sapiens): 1.4 µM
pIC50 (bovine erythrocyte GPx): 6.08

Structure (SMILES): OO [Compound H2O2, hydrogen peroxide, reference compound]
intact DNA in comet head (SISO cells [1]; 20 μM positive control): significant decreases of intact DNA
intact DNA in comet head (HAP-1 cells [3]): significant decreases of intact DNA

Structure (SMILES): N#CC(C#N)=NNc1ccc(OC(F)(F)F)cc1 [FCCP, carbonyl cyanide‐p‐trifluoromethoxyphenylhydrazone]
mitochondrial membrane potential (MMP) (HAP-1 cells [4]): complete loss of MMP

Structure (SMILES): O=C(O)CC(S)C(=O)O (stereo not shown) [MSA, mercaptosuccinic acid, reference compound]
inhibition of GPx activity (human GPx): 60%
GI50 [2]: 57.1 µM
reversibility of GPx1 inhibition (bovine GPx1): some irreversible inhibition had occurred
pIC50 (bovine erythrocyte GPx): 5.23

Structure (SMILES): CC(C)(C)OO [tBuOOH, reference compound]
lipid peroxidation (LPO) (SISO cells [5]): showed LPO
